According to patent US5179120A, “Porphycene compounds for photodynamic therapy” (Cytopharm, Inc., priority 1991, dated 1993):

How the values were obtained:
[1] = Stability towards oxygen and light (observation during preparation); format: physicochemical; conditions: traces of oxygen in the presence of light
Description: At room temperature while stirring in the dark, 243 mg (248 μL, 1.6 mmol) DBU were added all at once to a solution of 14.8 mg (20 μmol) tetrakis(bromoethyl)porphycene in 50 mL of absolute THF. After thirty minutes, the agitator was turned off and the mixture left to stand at room temperature for two days. Subsequently the greenish-blue solution was treated with 80 mL of CH2 Cl2 and poured into 80 mL of 0.5% HCl. The organic phase was shaken out and washed with water and a 2% NaHCO3 solution, dried over Na2 SO4 and the solvent was evaporated under vacuum. The residue was chromatographed with CH2 Cl2 on aluminum oxide (Brockmann, II-III activity stage, column 2×10 cm) and the first green fraction was collected. The solvent was slowly evaporated under a slight vacuum and the remaining fine crystalline solid was washed with 3 mL of ice cooled, absolute pentane. Following drying under a high vacuum, 4.1 mg (10 μmol) tetravinylporphycene were obtained. […] The yield was 50%.
All reagents and solvents were purged of oxygen by introducing inert gas and all purification steps were carried out under subdued light, as was the reaction.

[2] = Solubility of the title compound in selected solvents; format: physicochemical
Source text: Solubility of the title compound in selected solvents: […]

C=CC1=Cc2nc1ccc1[nH]c(cc1C=C)c1nc(ccc3[nH]c2cc3C=C)C(C=C)=C1 [2,7,12,17-Tetravinylporphycene]
Stability (decomposition) [1]: decomposed even with traces of oxygen in the presence of light

COCCC1=Cc2nc1ccc1[nH]c(cc1CCOC)c1nc(c(OC(C)=O)cc3[nH]c2cc3CCOC)C(CCOC)=C1 [9-Acetoxy-2,7,12,17-tetrakis(methoxyethyl)porphycene]
Solubility of the title compound in selected solvents ([2]; CH2 Cl2): Excellent | Solubility of the title compound in selected solvents ([2]; CHCl3): Excellent | Solubility of the title compound in selected solvents ([2]; DEET): Good | Solubility of the title compound in selected solvents ([2]; DMF): Good | Solubility of the title compound in selected solvents ([2]; DMSO): Good | Solubility of the title compound in selected solvents ([2]; EtOH): Moderate | Solubility of the title compound in selected solvents ([2]; MeOH): Moderate | Solubility of the title compound in selected solvents ([2]; THF): Excellent | Solubility of the title compound in selected solvents ([2]; Toluene): Good | Solubility of the title compound in selected solvents ([2]; acetone): Good | Solubility of the title compound in selected solvents ([2]; ethyl acetate): Excellent | Solubility of the title compound in selected solvents ([2]; hexane): Insoluble | Solubility of the title compound in selected solvents ([2]; i-propanol): Moderate | Solubility of the title compound in selected solvents ([2]; water): Insoluble
